Assay results from the COVID Moonshot data (paper PMC11187573), “Identification of SARS-CoV-2 Mpro inhibitors through deep reinforcement learning for de novo drug design and computational chemistry approaches” (RSC Medicinal Chemistry, 2024).
pIC50: −log10 of the molar value.

Experiments:
[1] = molecular target: SARS-CoV-2 Main Protease (SARS-CoV-2) (UniProt P0DTD1)
Method: Compounds were seeded into assay-ready plates (Greiner 384 low volume, cat 784900) using an Echo 555 acoustic dispenser, and DMSO was back-filled for a uniform concentration in assay plates (DMSO concentration maximum 1%) Screening assays were performed in duplicate at 20µM and 50µM. […] Dose response assays were performed in 12 point dilutions of 2-fold, typically beginning at 100µM. […] Reagents for Mpro assay were dispensed into the assay plate in 10µl volumes for a final volume of 20µL.
Mpro was pre-incubated for 15 minutes at room temperature with compound before addition of substrate and a further 30 minute incubation. Protease reaction was measured in a BMG Pherastar FS with a 480/520 ex/em filter set. Raw data was mapped and normalized to high (Protease with DMSO) and low (No Protease) controls using Genedata Screener software.

[2] = molecular target: SARS-CoV-2 Main Protease (SARS-CoV-2) (UniProt P0DTD1); remark: listed apart in the source

Row | Structure (SMILES) | inhibition ([1]; 20.0 µM) [%] | inhibition ([1]; 50.0 µM) [%] | inhibition ([2]; 20.0 µM) [%] | relative solubility at 20 uM | relative solubility at 100 uM | inhibition ([2]; 50.0 µM) [%] | pIC50 [2] | pIC50 [1]
1 | C=CC(=O)N(c1ccc(S(F)(F)(F)(F)F)cc1)C(C(=O)Nc1c(C)cccc1CC)c1cccnc1 (stereo not drawn) | 3.13 | 7.07 | 4.69 | 0.85 | 0.73 | – | – | –
2 | COC(=O)C(c1ccccc1Cl)N1CCC2SC(=O)C=C2C1 (stereo not drawn) | -46.2 | -5.13 | – | 0.82 | 0.81 | 11.5 | – | –
3 | N#Cc1ccc(S(=O)(=O)N2CCN(C(=O)c3cc(=O)[nH]c4cc(F)ccc34)CC2)cc1 | 6.9 | 39.9 | – | 0.94 | 0.94 | 0.23 | – | –
4 | O=C(c1cc(=O)[nH]c2ccc(Cl)cc12)N1CCN(S(=O)(=O)c2ccccc2)CC1 | 10.6 | 23.9 | – | 0.94 | 0.93 | 22.8 | – | –
5 | O=C(O)[C@@H](Cc1nc(=O)cc[nH]1)NC[C@@H]1C[C@@H]2C=C[C@H]1C2 (stereo in doubt) | 13.7 | 26.4 | – | 1 | 1 | 29.5 | – | –
6 | CCC(=O)O[C@@H](OP(=O)(CCCCc1ccccc1)CC(=O)N1C[C@H](C2CCCCC2)C[C@H]1C(=O)O)C(C)C (stereo in doubt) | 4.91 | -0.253 | 3.17 | 1 | 0.92 | – | – | –
7 | Cc1ccc(NC(=O)Nc2cccnc2)s1 | 1.9 | 11.3 | 2.62 | 1 | 0.96 | 28.6 | – | –
8 | C=CC(=O)N(c1ccc2ncsc2c1)C(C(=O)Nc1c(C)cccc1CC)c1cccnc1 (stereo not drawn) | 7.67 | 10.7 | 0 | 0.97 | 0.97 | – | – | –
9 | C=CC(=O)N(c1ccc(C(C)(C)C)cc1)C(C(=O)NCc1ccc(F)cc1)c1cccnc1 (stereo not drawn) | 51.2 | 76.4 | 79.3 | 0.98 | 0.66 | 100 | 4.98 | –
10 | Cc1ccc(S(=O)(=O)N2CCN(C(=O)c3cc(=O)[nH]c4ccc(F)cc34)CC2)c(C)c1 | 6.24 | 20.6 | – | 0.98 | 0.84 | 11.7 | – | –
11 | CCN1CCN(Cc2ccccc2CNC2=NC[C@@H](C3CCCC3)N2)CC1 (stereo in doubt) | -1.16 | -20.8 | – | 1 | 1 | -30.8 | – | –
12 | CC(C)N(C)CC1CCN(c2ccc(S(N)(=O)=O)cc2)CC1 | – | -17.8 | 0 | 1 | 0.99 | 0 | – | –
13 | N#Cc1cc(Cl)cc(NC(=O)Nc2cccnc2)c1 | 23 | 43.9 | 6.78 | 0.99 | 0.88 | 36.5 | – | –
14 | Cc1ccncc1NC(=O)Cc1ccc(S(N)(=O)=O)cc1 | 4.76 | 10.9 | 6.42 | 1 | 1 | -0.94 | – | –
15 | Cc1ccnn1CC(=O)NCC(NC(=O)C(C)C#N)c1ccccc1 (stereo not drawn) | -13.2 | -6.86 | – | 0.99 | 1 | -26.1 | – | –
16 | C=CC(=O)N(c1ccc(C(C)(C)C)cc1)C(C(=O)NC(C)(C)C)c1cncc(C(C)(F)F)c1 (stereo not drawn) | -11.5 | -15.5 | 0 | 0.99 | 0.96 | 0 | – | –
17 | O=C(c1cc(=O)[nH]c2ccccc12)N1CCN(c2ccccc2)CC1 | – | 54.1 | 66.6 | 1 | 1 | 78.8 | 4.98 | –
18 | CN(C)C/C=C/C(=O)Nc1c[nH]c2ccccc12 | 5.8 | 22.5 | 0 | 1 | 1 | – | – | –
19 | C=CC(=O)N(c1ccc(C(C)(C)C)cc1)C(C(=O)NCC)c1cccnc1 (stereo not drawn) | 57 | 50.2 | 52.6 | 0.99 | 1 | 100 | 4.71 | –
20 | O=C(CCl)N1CCN(Cc2cc(O)ccc2O)CC1 | 57.4 | 74.5 | 63.9 | 0.99 | 0.99 | 89.9 | 5.03 | –
21 | CS(=O)(=O)c1ncc(Cl)c(C(=O)Nc2ccccc2Cc2ccccc2)n1 | 96.3 | 94.7 | – | 0.96 | 0.79 | 100 | 6.08 | –
22 | CC(=O)Nc1ccc(NCC(=O)Nc2cnccc2C)cc1 | -2.21 | -24.3 | – | 0.96 | 0.9 | 0 | – | –
23 | N#Cc1ncccc1NC(=O)Cc1cccc(Cl)c1 | -10.2 | -15.7 | 0 | 0.99 | 1 | 0 | – | –
24 | C=CC(=O)N(c1ccc(C(C)(C)C)cc1)C(C(=O)NC1CC(C(=O)OC)C1)c1cccnc1 (stereo not drawn) | 5.7 | 4.24 | 0 | 0.99 | 0.98 | 0 | – | –
25 | C=CC(=O)N1CCN(Cc2cccc3ccccc23)CC1 | -4.32 | 3.35 | 0 | 1 | 0.99 | – | – | –
26 | Cc1cccc(NC(=O)Cn2c(=O)oc3ccccc32)c1 | -20.4 | -5.83 | – | 0.99 | 0.94 | -9.03 | – | –
27 | CC1(C)CCCN1S(=O)(=O)c1ccc2c(c1)C(=O)C(=O)N2 | -5.91 | -10.7 | – | 0.94 | 0.89 | 0 | – | –

Row | Structure (SMILES) | inhibition ([1]; 20.0 µM) [%] | inhibition ([1]; 50.0 µM) [%] | inhibition ([2]; 20.0 µM) [%] | relative solubility at 20 uM | relative solubility at 100 uM | inhibition ([2]; 50.0 µM) [%] | pIC50 [2] | pIC50 [1]
28 | Cc1ccncc1NC(=O)CCc1ccc(F)cc1 | 1.95 | 5.92 | – | 1 | 1 | 6.51 | – | –
29 | CCNc1ncc(C#N)cc1CN1CCN(C(=O)CCl)CC1 | 99.7 | 102 | – | 0.98 | 0.95 | 99.7 | 5.79 | –
30 | Cc1ccncc1-c1nnc(-c2cccc(Cl)c2)o1 | 1.73 | 13.8 | – | 1 | 0.99 | 0.631 | – | –
31 | C=CC(=O)N(C1CCCC(C(C)C)CC1)C(C(=O)NC(C)(C)C)c1cccnc1 (stereo not drawn) | -1.08 | 8.24 | 0 | 0.99 | 0.95 | – | – | –
32 | Cc1ccncc1NC(=O)Nc1cccc(C#N)c1 | 19.4 | 44.3 | 23.8 | 1 | 0.97 | 55.7 | 4.31 | –
33 | Cc1ccncc1NC(=O)C(C)Cc1ccccc1 (stereo not drawn) | -54.9 | -128 | – | 1 | 1 | 0 | – | –
34 | C=CC(=O)N(c1ccc(C(F)(F)F)cc1)C(C(=O)NCCc1cccc(F)c1)c1cccnc1 (stereo not drawn) | 50.7 | 72.7 | – | 0.99 | 0.94 | 100 | 5.21 | –
35 | O=S1(=O)CCC(N2CCN(c3nc(-c4cccnc4)nc4ccccc34)CC2)C1 (stereo not drawn) | 13 | 14.1 | 0 | 1 | 0.94 | 0 | – | –
36 | Cc1nnn(NC(=O)Cc2cccc(Cl)c2)c1C | 39.6 | 70.4 | – | 1 | 1.01 | 28.7 | 4.13 | –
37 | O=S(=O)(CCc1ccccc1)Nc1cccnc1 | -0.803 | -32.5 | – | 0.98 | 0.99 | 17.2 | – | –
38 | C=CC(=O)N(c1cc(C(C)(C)C)on1)C(C(=O)NC(C)(C)C)c1cccnc1 (stereo not drawn) | 7.86 | 16.1 | 28.7 | 0.98 | 0.91 | – | – | –
39 | C=CC(=O)N(c1ccc2ncsc2c1)C(C(=O)Nc1ccc(Br)cc1)c1cccnc1 (stereo not drawn) | 17.4 | 34.9 | 3.05 | 0.75 | 0.64 | – | – | –
40 | Cc1ncncc1NC(=O)C(c1cccc(Cl)c1)C(C)C (stereo not drawn) | 3.52 | 20.6 | – | 1 | 0.99 | 46.5 | – | –
41 | O=C(Nc1cnccc1Cl)c1cccc(Cl)c1 | -2.3 | 3.23 | 0 | 1 | 1 | 10.5 | – | –
42 | O=C(NC1CCCCC1NC(=O)c1ccncc1)c1ccccc1 (stereo not drawn) | – | -22.4 | 0 | 1 | 1 | 0 | – | –
43 | COC(=O)C(Cc1ccccc1)C(C)NC(=O)C(C)n1ccnc1 (stereo not drawn) | – | 11.9 | 0 | 1 | 1 | 0 | – | –
44 | O=C(CCl)N1CCN(C2(c3cccc(Cl)c3)CC2)CC1 | 55.7 | 80.8 | – | 1.01 | 0.99 | 41.2 | – | 4.28
45 | O=C(Cc1cccc(Cl)c1)Nc1nncs1 | -9.94 | -3.05 | – | 1 | 0.78 | 0 | – | –
46 | Cc1nnc(NC(=O)Cc2cccc(Cl)c2)n1C | -6.05 | 0.874 | – | 1 | 1 | -14 | – | –
47 | O=C1CC[C@H](C(=O)Nc2cccc(Br)c2)N1 (stereo in doubt) | 15 | 5.83 | – | 1 | 1 | 0 | – | –
48 | C=CC(=O)Nc1cc(C(=O)NC[C@H](Cc2ccccc2)c2ccccn2)ccc1O (stereo in doubt) | 0.684 | 9.48 | 0 | 0.83 | 0.82 | – | – | –
49 | Cc1ccc(Oc2cccc(NC(=O)NCc3cnnn3C)c2)c(C)c1 | -10.7 | -12.8 | 0 | 0.96 | 0.75 | – | – | –
50 | Cc1cc(C)cc(NC(=O)Cn2cncc2C)c1 | -2.21 | 2.72 | – | 1 | 1 | 0 | – | –
51 | N#Cc1cccc(NC(=O)Nc2cccnc2)c1 | 6.21 | 10.3 | 0 | 1 | 1 | – | – | –
52 | C=CC(=O)N(c1ccc(C(C)OC)cc1)C(C(=O)NC(C)(C)C)c1cccnc1 (stereo not drawn) | 7.07 | 15.9 | 0 | 0.98 | 0.86 | – | – | –
53 | C/C=C/C(=O)Nc1cccc(OC2CC(=O)N2)c1 (stereo not drawn) | -3.03 | 4.68 | – | 1 | 1 | 0 | – | –
54 | N#Cc1cccc(CN2CCN(C(=O)CCl)CC2)c1 | 53.4 | 85.2 | 64.3 | 1.01 | 0.99 | – | 4.91 | –
